This note sets out measurements from US20240116910A1, “Heterocycles as WIP1 Inhibitors” (PMV Pharmaceuticals, Inc., priority 2022, published 2024).

One may read the IC50 as the concentration needed to halve the response being measured.

In experiment [1] the target is recombinant His-tag Wip1(2-420) protein (amino acids #2-420) (Homo sapiens (Human), UniProt O15297). In words: Wip1(2-420) phosphatase enzyme FDP assay. It is filed as biochemical. The following applies: fluorescein diphosphate (FDP) substrate, RT 2 hours, fluorescence Ex485/Em535; read-out: WIP1 (Truncated 2-420) FDP Assay: IC50.
In experiment [2] the target is recombinant His-tag Wip1 full length protein (amino acids #1-605) (Homo sapiens (Human), UniProt O15297). In words: Wip1 full length phosphatase enzyme FDP assay. It is filed as biochemical. The settings on record: fluorescein diphosphate (FDP) substrate, RT 2 hours, fluorescence Ex485/Em535.
recombinant His-tag Wip1 full length protein (amino acids #1-605), sequence (O15297 whole entry): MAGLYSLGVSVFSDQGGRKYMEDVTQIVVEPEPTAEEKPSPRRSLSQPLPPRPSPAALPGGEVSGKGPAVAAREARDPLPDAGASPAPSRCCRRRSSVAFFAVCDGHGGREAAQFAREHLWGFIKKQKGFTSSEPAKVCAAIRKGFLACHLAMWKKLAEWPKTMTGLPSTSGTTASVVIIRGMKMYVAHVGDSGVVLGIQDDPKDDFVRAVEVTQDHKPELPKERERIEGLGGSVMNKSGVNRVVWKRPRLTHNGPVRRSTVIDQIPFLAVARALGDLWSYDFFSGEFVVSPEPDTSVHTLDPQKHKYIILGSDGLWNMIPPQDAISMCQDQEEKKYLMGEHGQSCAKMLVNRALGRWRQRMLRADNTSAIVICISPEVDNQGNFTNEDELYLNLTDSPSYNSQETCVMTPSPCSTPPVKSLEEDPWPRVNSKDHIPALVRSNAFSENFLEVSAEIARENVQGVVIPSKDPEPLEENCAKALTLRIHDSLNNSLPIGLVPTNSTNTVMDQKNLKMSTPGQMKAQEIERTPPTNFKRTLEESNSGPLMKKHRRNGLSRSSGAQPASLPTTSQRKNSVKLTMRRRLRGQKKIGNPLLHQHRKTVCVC

recombinant His-tag Wip1(2-420) protein (amino acids #2-420), sequence (O15297 2-420): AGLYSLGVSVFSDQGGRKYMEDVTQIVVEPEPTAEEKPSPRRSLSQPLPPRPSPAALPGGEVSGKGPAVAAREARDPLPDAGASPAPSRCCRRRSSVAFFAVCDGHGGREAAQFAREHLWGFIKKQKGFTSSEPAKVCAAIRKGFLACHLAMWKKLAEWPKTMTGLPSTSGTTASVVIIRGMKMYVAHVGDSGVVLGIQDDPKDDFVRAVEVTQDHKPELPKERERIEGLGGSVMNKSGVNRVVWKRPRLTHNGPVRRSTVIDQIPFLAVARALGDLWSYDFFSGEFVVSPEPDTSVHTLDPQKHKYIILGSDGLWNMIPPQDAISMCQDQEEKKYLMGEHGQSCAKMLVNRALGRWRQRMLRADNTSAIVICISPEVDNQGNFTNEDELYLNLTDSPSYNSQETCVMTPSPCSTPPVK

Consider `CCNC(=O)[C@H](CC1CCCC1)NC(=O)c1ccc([C@H](C)Nc2cc(Cl)cnc2C)s1` [Compound 77, (2S)-2-({5-[(1S)-1-[(5-chloro-2-methylpyridin-3-yl)amino]ethyl]thiophen-2-yl}formamido)-3-cyclopentyl-N-ethylpropanamide], for which the values for the IC50 in experiment [1] and in experiment [2] were 6 nM and 10 nM, respectively.
Turning to `CCc1ncc(Cl)cc1N[C@@H](C)c1ccc(C(=O)N[C@@H](CC2CCCC2)C(=O)NC2CC2)s1` [Compound 78, (2S)-2-({5-[(1S)-1-[(5-chloro-2-ethylpyridin-3-yl)amino]ethyl]thiophen-2-yl}formamido)-3-cyclopentyl-N-cyclopropylpropanamide], the results for the IC50 in experiment [1] and in experiment [2] were 6 nM and 7 nM, respectively.
For the molecule `CCc1ncc(Cl)cc1N[C@H](C)c1ccc(C(=O)N[C@@H](CC2CCCC2)C(=O)NC2CC2)s1` [Compound 79, (2S)-2-({5-[(1R)-1-[(5-chloro-2-ethylpyridin-3-yl)amino]ethyl]thiophen-2-yl}formamido)-3-cyclopentyl-N-cyclopropylpropanamide], the results for the IC50 in experiment [1] and in experiment [2] were 223 nM and 308 nM, respectively.
In the same order, the values of `CC[C@H](Nc1cc(Cl)cnc1C)c1ccc(C(=O)N[C@@H](CC2CCCC2)C(=O)NC23CC(C#N)(C2)C3)s1` [Compound 80, (2S)-2-({5-[(1S)-1-[(5-chloro-2-methylpyridin-3-yl)amino]propyl]thiophen-2-yl}formamido)-N-{3-cyanobicyclo[1.1.1]pentan-1-yl}-3-cyclopentylpropanamide] are 10 nM and 18 nM.
As for `COc1ncc(Cl)cc1N[C@@H](C)c1ccc(C(=O)N[C@@H](CC2CCCC2)C(=O)NC23CC(C#N)(C2)C3)s1` [Compound 82, (2S)-2-({5-[(1S)-1-[(5-chloro-2-methoxypyridin-3-yl)amino]ethyl]thiophen-2-yl}formamido)-N-{3-cyanobicyclo[1.1.1]pentan-1-yl}-3-cyclopentylpropanamide], the half-inhibitory concentration (IC50) in experiment [1] is 13 nM; in experiment [2], 20 nM.
The corresponding values for `Cc1ncc(Cl)cc1NC(C)c1ccc(C(=O)N[C@@H](CC2CCCC2)C(=O)NC23CC(C2)C3)s1` (some centres unmarked) [Compound 117] are 41 nM and 70 nM.
On to `Cc1cc(NC(=O)[C@H](CC2CCCC2)NC(=O)c2cnc([C@@H](C)Nc3cccc(Cl)c3)s2)cc(C)n1` [Compound 118, (2S)-2-({2-[(1R)-1-[(3-chlorophenyl)amino]ethyl]-1,3-thiazol-5-yl}formamido)-3-cyclopentyl-N-(2,6-dimethylpyridin-4-yl)propanamide], for which the IC50 is 135 nM in experiment [1] and 196 nM in experiment [2].
On to `Cc1cc(NC(=O)[C@H](CC2CCCC2)NC(=O)c2cnc([C@H](C)Nc3cccc(Cl)c3)s2)ccn1` [Compound 119, (2S)-2-({2-[(1S)-1-[(3-chlorophenyl)amino]ethyl]-1,3-thiazol-5-yl}formamido)-3-cyclopentyl-N-(2-methylpyridin-4-yl)propanamide], for which the figures for the concentration for half-maximal inhibition (IC50) in experiment [1] and in experiment [2] were 70 nM and 115 nM, respectively.
The corresponding values for `Cc1cc(NC(=O)[C@H](CC2CCCC2)NC(=O)c2cnc([C@@H](C)Nc3cccc(Cl)c3)s2)ccn1` [Compound 120, (2S)-2-({2-[(1R)-1-[(3-chlorophenyl)amino]ethyl]-1,3-thiazol-5-yl}formamido)-3-cyclopentyl-N-(2-methylpyridin-4-yl)propanamide] are 7 nM and 11 nM.
Turning to `Cc1cc(NC(=O)[C@H](CC2CCCC2)NC(=O)c2cnc(C(C)Nc3cccc(Cl)c3)s2)ccn1` (stereo partly drawn) [Compound 121, (2S)-2-[(2-{1-[(3-chlorophenyl)amino]ethyl}-1,3-thiazol-5-yl)formamido]-3-cyclopentyl-N-(2-methylpyridin-4-yl)propanamide], the figures for the IC50 in experiment [1] and in experiment [2] were 66 nM and 19 nM, respectively.
In the same order, the values of `Cc1cc(NC(=O)[C@H](CC2CCCC2)NC(=O)c2cnc(C(C)Nc3cccc(Cl)c3)s2)cc(C)n1` (stereo partly drawn) [Compound 122, (2S)-2-[(2-{1-[(3-chlorophenyl)amino]ethyl}-1,3-thiazol-5-yl)formamido]-3-cyclopentyl-N-(2,6-dimethylpyridin-4-yl)propanamide] are 130 nM and 62 nM.
The corresponding values for `CC(Nc1cccc(Cl)c1)c1ncc(C(=O)N[C@@H](CC2CCCC2)C(=O)NC2CC2)s1` (stereo partly drawn) [Compound 123, (2S)-2-[(2-{1-[(3-chlorophenyl)amino]ethyl}-1,3-thiazol-5-yl)formamido]-3-cyclopentyl-N-cyclopropylpropanamide] are 159 nM and 39 nM.
The corresponding values for `C[C@@H](Nc1cccc(Cl)c1)c1ncc(C(=O)N[C@@H](CC2CCCC2)C(=O)NC2CC2)s1` [Compound 125, (2S)-2-({2-[(1R)-1-[(3-chlorophenyl)amino]ethyl]-1,3-thiazol-5-yl}formamido)-3-cyclopentyl-N-cyclopropylpropanamide] are 59 nM and 16 nM.
Take `COc1cc(NC(=O)[C@H](CC2CCCC2)NC(=O)c2ccc([C@H](C)Nc3cc(Cl)cnc3C)s2)ccn1` [Compound 156, (2S)-2-({5-[(1S)-1-[(5-chloro-2-methylpyridin-3-yl)amino]ethyl]thiophen-2-yl}formamido)-3-cyclopentyl-N-(2-methoxypyridin-4-yl)propanamide]: the IC50 in experiment [1] amounted to 4 nM; in experiment [2], 9 nM.
Regarding `Cc1ncc(Cl)cc1N[C@@H](C)c1ccc(C(=O)N[C@@H](CCC(C)(C)C)C(=O)Nc2cnn(C)c2)s1` [Compound 160, (2S)-2-({5-[(1S)-1-[(5-chloro-2-methylpyridin-3-yl)amino]ethyl]thiophen-2-yl}formamido)-5,5-dimethyl-N-(1-methyl-1H-pyrazol-4-yl)hexanamide], the 50% inhibitory concentration (IC50) worked out at 9 nM in experiment [1] and 13 nM in experiment [2].
For the molecule `CCn1cc(NC(=O)[C@H](CC2CCCC2)NC(=O)c2ccc([C@H](C)Nc3cc(Cl)cnc3C)s2)cn1` [Compound 162, (2S)-2-({5-[(1S)-1-[(5-chloro-2-methylpyridin-3-yl)amino]ethyl]thiophen-2-yl}formamido)-3-cyclopentyl-N-(1-ethyl-1H-pyrazol-4-yl)propanamide], the half-inhibitory concentration (IC50) in experiment [1] was 6 nM; in experiment [2] it was 8 nM.
In the same order, the values of `Cc1ncc(Cl)cc1N[C@@H](C)c1ccc(C(=O)N[C@@H](CC2CCCC2)C(=O)Nc2cnn(C3CCOCC3)c2)s1` [Compound 163, (2S)-2-({5-[(1S)-1-[(5-chloro-2-methylpyridin-3-yl)amino]ethyl]thiophen-2-yl}formamido)-3-cyclopentyl-N-[1-(oxan-4-yl)-1H-pyrazol-4-yl]propanamide] are 5 nM and 8 nM.
The corresponding values for `Cc1ncc(Cl)cc1N[C@@H](C)c1ccc(C(=O)N[C@@H](CC2CCCC2)C(=O)Nc2ccc3c(c2)CCCN3C)s1` [Compound 168, (2S)-2-({5-[(1S)-1-[(5-chloro-2-methylpyridin-3-yl)amino]ethyl]thiophen-2-yl}formamido)-3-cyclopentyl-N-(1-methyl-1,2,3,4-tetrahydroquinolin-6-yl)propanamide] are 11 nM and 15 nM.
In the same order, the values of `Cc1ncc(Cl)cc1N[C@@H](Cc1cnn(C)c1)c1ccc(C(=O)N[C@@H](CC2CCCC2)C(=O)NC2CC2)s1` [Compound 171, (2S)-2-({5-[(1S)-1-[(5-chloro-2-methylpyridin-3-yl)amino]-2-(1-methyl-1H-pyrazol-4-yl)ethyl]thiophen-2-yl}formamido)-3-cyclopentyl-N-cyclopropylpropanamide] are 7 nM and 10 nM.
Take `Cc1cc(NC(=O)[C@@H](NC(=O)c2ccc([C@H](C)Nc3cc(Cl)cnc3C)s2)C2CCCCC2)ccn1` [Compound 175, (2S)-2-({5-[(1S)-1-[(5-chloro-2-methylpyridin-3-yl)amino]ethyl]thiophen-2-yl}formamido)-2-cyclohexyl-N-(2-methylpyridin-4-yl)acetamide]: the IC50 is 13 nM in experiment [1] and 15 nM in experiment [2].
For `Cc1ncc(Cl)cc1N[C@@H](C)c1ccc(C(=O)N[C@H](C(=O)Nc2cnn(C)c2)C2CCCCC2)s1` [Compound 177, (2S)-2-({5-[(1S)-1-[(5-chloro-2-methylpyridin-3-yl)amino]ethyl]thiophen-2-yl}formamido)-2-cyclohexyl-N-(1-methyl-1H-pyrazol-4-yl)acetamide], the values for the IC50 in experiment [1] and in experiment [2] were 18 nM and 23 nM, respectively.
The corresponding values for `Cc1cc(NC(=O)[C@H](CCC(C)C)NC(=O)c2ccc([C@H](C)Nc3cc(Cl)cnc3C)s2)ccn1` [Compound 210, (2S)-2-({5-[(1S)-1-[(5-chloro-2-methylpyridin-3-yl)amino]ethyl]thiophen-2-yl}formamido)-5-methyl-N-(2-methylpyridin-4-yl)hexanamide] are 7 nM and 10 nM.
Turning to `Cc1ncc(Cl)cc1N[C@@H](C)c1ncc(C(=O)N[C@@H](CC2CCCC2)C(=O)NC23CC(C2)C3)s1` [Compound 278, (2S)-N-{bicyclo[1.1.1]pentan-1-yl}-2-({2-[(1S)-1-[(5-chloro-2-methylpyridin-3-yl)amino]ethyl]-1,3-thiazol-5-yl}formamido)-3-cyclopentylpropanamide], the values for the IC50 in experiment [1] and in experiment [2] were 19 nM and 30 nM, respectively.
For `Cc1ncc(Cl)cc1N[C@@H](C)c1ncc(C(=O)N[C@@H](CC2CCCC2)C(=O)NC2CC2)s1` [Compound 279, (2S)-2-({2-[(1S)-1-[(5-chloro-2-methylpyridin-3-yl)amino]ethyl]-1,3-thiazol-5-yl}formamido)-3-cyclopentyl-N-cyclopropylpropanamide], the IC50 in experiment [1] turned out to be 41 nM; in experiment [2], 53 nM.
In the same order, the values of `Cc1ncc(Cl)cc1NC(C)c1ncc(C(=O)N[C@@H](CC2CCCC2)C(=O)NC2CC2)s1` (stereo partly drawn) [Compound 280, (2S)-2-[(2-{1-[(5-chloro-2-methylpyridin-3-yl)amino]ethyl}-1,3-thiazol-5-yl)formamido]-3-cyclopentyl-N-cyclopropylpropanamide] are 41 nM and 70 nM.
